The text below walks through data of US20070078057A1, “Microemulsion formulation” (priority 2005, published 2007).

This data set is described as follows: Maximum concentration of ingredient incorporated into the microemulsion. In kind it is physicochemical. The conditions noted are these: incorporated into the microemulsion formulation of Table 28.
Turning to Xylene, the “Approximate Maximum Concentration” value is 5.0. The result for `CC(=O)Oc1c(C)c(C)c2c(c1C)CCC(C)(CCC[C@H](C)CCC[C@H](C)CCCC(C)C)O2` (stereo partly drawn) [Vitamin E, α-Tocopherol acetate, reference compound] reads 1.0; that for `C[C@]12C=CC(=O)C=C1CC[C@@H]1[C@@H]2C(=O)C[C@@]2(C)[C@H]1CC[C@]2(O)C(=O)CO` [Prednisone, reference compound], 0.5; that for `Cc1ccccc1` [Toluene], 2.0. As to `CCCCCC` [Hexane], the “Approximate Maximum Concentration” value worked out at 2.0.
